In patent US20150057246A1, “SILYL-CONTAINING HETEROCYCLIC COMPOUNDS AND METHODS OF USE THEREOF FOR THE TREATMENT OF VIRAL DISEASES” (priority 2012, published 2015):
Read-outs that look alike come from different tables or passages of the source.

Experiments:
[1] = test system: HCV 1a replicon; experiment: Cell-based HCV replicon assay (TaqMan), genotype 1a replicon; conditions: HCV genotype 1a replicon cells, replicon RNA by real time PCR, day 3, EC90 = concentration for ΔCT=3.2 over baseline
Protocol: (§1) Measurement of inhibition by compounds of the present invention was performed using the HCV replicon system. Several different replicons encoding different HCV genotypes or mutations were used. In addition, potency measurements were made using different formats of the replicon assay, including different ways of measurements and different plating formats. See Jan M. Vrolijk et al., A replicons-based bioassay for the measurement of interferons in patients with chronic hepatitis C, 110 J. VIROLOGICAL METHODS 201 (2003); Steven S. Carroll et al., Inhibition of Hepatitis C Virus RNA Replication by 2′-Modified Nucleoside Analogs, 278(14) J. BIOLOGICAL CHEMISTRY 11979 (2003). However, the underlying principles are common to all of these determinations, and are outlined below.
(§2) TaqMan®-Based Assay Protocol:
(§3) Compounds of the present invention were assayed for cell-based anti-HCV activity using the following protocol. Replicon cells were seeded at 5000 cells/well in 96-well collagen I-coated Nunc plates in the presence of the test compound. Various concentrations of test compound, typically in 10 serial 2-fold dilutions, were added to the assay mixture, with the starting concentration ranging from 250 μM to 1 μM. The final concentration of DMSO was 0.5%, fetal bovine serum was 5%, in the assay media. Cells were harvested on day 3 by the addition of 1× cell lysis buffer (Ambion cat #8721). The replicon RNA level was measured using real time PCR (TaqMan® assay). The amplicon was located in 5B. The PCR primers were: 5B.2F, ATGGACAGGCGCCCTGA (SEQ. ID NO. 1); 5B.2R, […] (SEQ. ID NO. 2); the probe sequence was FAM-labeled CACGCCATGCGCTGCGG (SEQ. ID NO. 3). GAPDH RNA was used as endogenous control and was amplified in the same reaction as NS5B (multiplex PCR) using primers and VIC-labeled probe recommended by the manufacturer (PE Applied Biosystem). The real-time […] reactions were run on ABI PRISM 7900HT Sequence Detection System using the following program: 48° C. for 30 minutes, 95° C. for 10 minutes, 40 cycles of 95° C. for 15 sec, 60° C. for 1 minute. The ΔCT values (CT5B-CTGAPDH) were plotted against the concentration of test compound and fitted to the sigmoid dose-response model using XLfit4 (MDL). EC50 was defined as the concentration of inhibitor necessary to achieve ΔCT=1 over the projected baseline; EC90 the concentration necessary to achieve ΔCT=3.2 over the baseline. Alternatively, to quantitate the absolute amount of replicon RNA, a standard curve was established by including serially diluted T7 transcripts of replicon RNA in the Taqman assay. All TaqMan® reagents were from PE Applied Biosystems. Such an assay procedure was described in detail in e.g. Malcolm et al., Antimicrobial Agents and Chemotherapy 50: 1013-1020 (2006).
(§4) HCV replicon EC50 assay data for various replicons and mutants was calculated for selected compounds of the present invention using this method and is provided in the tables above herein.

[2] = test system: HCV 1a Y93H replicon; experiment: Cell-based HCV replicon assay (TaqMan), 1a Y93H mutant replicon; conditions: EC90 = concentration for ΔCT=3.2 over baseline
Protocol: as §1, §2, §3, §4

[3] = test system: HCV 2b replicon; experiment: Cell-based HCV replicon assay (TaqMan), genotype 2b replicon; conditions: EC90 = concentration for ΔCT=3.2 over baseline
Protocol: as §1, §2, §3, §4

[4] = Hepatitis C virus, 72 h, read-out: 1a Y93H EC90, HCV 1a Y93H mutant replicon cells, replicon RNA by real time PCR, day 3
[5] = Hepatitis C virus, 72 h, read-out: 2b EC90, HCV genotype 2b replicon cells, replicon RNA by real time PCR, day 3
[6] = read-out: 1a Y93H EC90, HCV 1a Y93H mutant replicon cells, replicon RNA by real time PCR, day 3

Row | SMILES | EC90 ([1]; Hepatitis C virus, 72 h) | EC90 [2, 4] | EC90 [3, 5] | EC90 [1] | EC90 [2, 6] | EC90 ([3]; read-out: 2b EC90, HCV genotype 2b replicon cells, replicon RNA by real time PCR, day 3)
1 | COC(=O)N1CCOC[C@H]1C(=O)N1C[Si](C)(C)C[C@H]1c1ncc(-c2ccc(-c3ccc4c(ccc5nc([C@@H]6CCCN6C(=O)[C@@H]6COCCN6C(=O)OC)[nH]c54)c3)cc2)[nH]1 [Compound 39] | 149 nM | > 1000 nM | > 1000 nM | – | – | –
2 | COC(=O)N[C@H](C(=O)N1C[Si](C)(C)C[C@H]1c1ncc(-c2ccc(-c3ccc4c(ccc5nc([C@@H]6CCCN6C(=O)[C@@H](NC(=O)OC)[C@@H](C)OC)[nH]c54)c3)cc2)[nH]1)[C@@H](C)OC [Compound 36] | 0.152 nM | 276 nM | > 1000 nM | – | – | –
3 | CC[C@H](NC(=O)OC)C(=O)N1C[Si](C)(C)C[C@H]1c1ncc(-c2ccc(-c3ccc4c(ccc5nc([C@@H]6CCCN6C(=O)[C@H](CC)NC(=O)OC)[nH]c54)c3)cc2)[nH]1 [Compound 44] | 0.3 nM | 302 nM | 171 nM | – | – | –
4 | CC(C)(C)OC(=O)N1C[Si](C)(C)C[C@H]1c1nc2ccc3cc(-c4ccc(-c5cnc([C@@H]6C[C@H]7C[C@H]7N6C(=O)OC(C)(C)C)[nH]5)cc4)ccc3c2[nH]1 [Compound 97] | – | > 1000 nM | – | > 1 nM | – | –
5 | COC(=O)N[C@@H](C(=O)N1C[Si](C)(C)C[C@H]1c1ncc(-c2ccc(-c3ccc4c(ccc5nc([C@@H]6CCCN6C(=O)[C@H](NC(=O)OC)C6CC6)[nH]c54)c3)cc2)[nH]1)C1CC1 [Compound 50] | > 1000 nM | > 1000 nM | > 1000 nM | – | – | –
6 | COC(=O)N[C@@H](Cc1cccc(O)c1)C(=O)N1C[Si](C)(C)C[C@H]1c1ncc(-c2ccc(-c3ccc4c(ccc5nc([C@@H]6CCCN6C(=O)[C@H](Cc6cccc(O)c6)NC(=O)OC)[nH]c54)c3)cc2)[nH]1 [Compound 37] | 2.52 nM | > 1000 nM | > 1000 nM | – | – | –
7 | COC(=O)N[C@@H](Cc1cccc(O)c1)C(=O)N1C[Si](C)(C)C[C@H]1c1nc2ccc3cc(-c4ccc(-c5cnc([C@@H]6CCCN6C(=O)[C@@H](NC(=O)OC)C(C)C)[nH]5)cc4)ccc3c2[nH]1 [Compound 61] | 0.33 nM | > 1000 nM | 37 nM | – | – | –
8 | CC(C)(C)OC(=O)N1C[Si](C)(C)C[C@H]1c1nc2ccc3cc(-c4ccc(-c5[nH]c([C@@H]6C[C@H]7C[C@H]7N6C(=O)OC(C)(C)C)nc5Cl)cc4)ccc3c2[nH]1 [Compound 100] | > 1000 nM | > 1000 nM | > 1000 nM | – | – | –
9 | CC[C@H](C)[C@H](NC(=O)OC)C(=O)N1C[Si](C)(C)C[C@H]1c1ncc(-c2ccc(-c3ccc4c(ccc5nc([C@@H]6CCCN6C(=O)[C@@H](NC(=O)OC)[C@@H](C)CC)[nH]c54)c3)cc2)[nH]1 [Compound 47] | – | – | – | 0.59 nM | 953 nM | 578 nM
10 | COC(=O)N[C@H](C(=O)N1C[Si](C)(C)C[C@H]1c1nc2ccc3cc(-c4ccc(-c5cnc([C@@H]6C[C@H]7C[C@H]7N6C(=O)[C@@H](NC(=O)OC)C6CCOCC6)[nH]5)cc4)ccc3c2[nH]1)C1CCOCC1 [Compound 99] | 0.14 nM | 42 nM | 3.5 nM | – | – | –
11 | COC(=O)N1CCC[C@H]1C(=O)N1C[Si](C)(C)C[C@H]1c1ncc(-c2ccc(-c3ccc4c(ccc5nc([C@@H]6CCCN6C(=O)[C@@H]6CCCN6C(=O)OC)[nH]c54)c3)cc2)[nH]1 [Compound 54] | > 1000 nM | > 1000 nM | > 1000 nM | – | – | –
12 | COC(=O)N[C@H](C(=O)N1C[Si](C)(C)C[C@H]1c1ncc(-c2ccc(-c3ccc4c(ccc5nc([C@@H]6CCCN6C(=O)[C@@H](NC(=O)OC)C6CCCOCC6)[nH]c54)c3)cc2)[nH]1)C1CCCOCC1 (some centres unmarked) [Compound 52] | 2.3 nM | > 1000 nM | 37 nM | – | – | –
13 | COC(=O)N[C@H](C)C(=O)N1C[Si](C)(C)C[C@H]1c1ncc(-c2ccc(-c3ccc4c(ccc5nc([C@@H]6CCCN6C(=O)[C@@H](C)NC(=O)OC)[nH]c54)c3)cc2)[nH]1 [Compound 49] | 386 nM | > 1000 nM | > 1000 nM | – | – | –
14 | COC(=O)N[C@@H](Cn1ncnn1)C(=O)N1C[Si](C)(C)C[C@H]1c1nc2ccc3cc(-c4ccc(-c5cnc([C@@H]6CCCN6C(=O)[C@@H](NC(=O)OC)C(C)C)[nH]5)cc4)ccc3c2[nH]1 [Compound 62] | 0.22 nM | > 1000 nM | 91 nM | – | – | –
15 | CC(C)(C)OC(=O)N1CCC[C@H]1c1ncc(-c2ccc3cc(-c4ccc5c(ccc6nc([C@@H]7C[Si](C)(C)CN7C(=O)OC(C)(C)C)[nH]c65)c4)ccc3c2)[nH]1 [Compound 110] | > 1000 nM | > 1000 nM | – | – | – | –
16 | CCC(C)[C@H](NC(=O)OC)C(=O)N1CCC[C@H]1c1ncc(-c2ccc(-c3ccc4c(ccc5nc([C@@H]6C[Si](C)(C)CN6C(=O)[C@@H](NC(=O)OC)C(C)CC)[nH]c54)c3)cc2)[nH]1 (some centres unmarked) [Compound 20] | 0.063 nM | > 100 nM | > 100 nM | – | – | –
17 | COC(=O)N[C@H](C(=O)N1C[Si](C)(C)C[C@H]1c1nc2ccc3cc(-c4ccc(-c5cnc([C@@H]6CCCN6C(=O)[C@@H](NC(=O)OC)C(C)(C)OC)[nH]5)cc4)ccc3c2[nH]1)C(C)C [Compound 86] | 0.77 nM | > 1000 nM | 389 nM | – | – | –
18 | COC(=O)N[C@H](C(=O)N1C[Si](C)(C)C[C@H]1c1ncc(-c2ccc(-c3ccc4c(ccc5nc([C@@H]6CCCN6C(=O)[C@@H](NC(=O)OC)C6CCCC6)[nH]c54)c3)cc2)[nH]1)C1CCCC1 [Compound 35] | 0.5 nM | 555 nM | 566 nM | – | – | –
19 | COC(=O)N[C@@H](Cc1cn(C)cn1)C(=O)N1C[Si](C)(C)C[C@H]1c1ncc(-c2ccc(-c3ccc4c(ccc5nc([C@@H]6CCCN6C(=O)[C@H](Cc6cn(C)cn6)NC(=O)OC)[nH]c54)c3)cc2)[nH]1 [Compound 40] | 2.57 nM | > 1000 nM | > 1000 nM | – | – | –
20 | COC(=O)N[C@H](C(=O)N1C[Si](C)(C)C[C@H]1c1ncc(-c2ccc(-c3ccc4c(ccc5nc([C@@H]6CCCN6C(=O)[C@@H](NC(=O)OC)C6CC6)[nH]c54)c3)cc2)[nH]1)C1CC1 [Compound 51] | 0.51 nM | > 1000 nM | > 1000 nM | – | – | –
21 | COC(=O)N[C@@H](CCSC)C(=O)N1C[Si](C)(C)C[C@H]1c1ncc(-c2ccc(-c3ccc4c(ccc5nc([C@@H]6CCCN6C(=O)[C@H](CCSC)NC(=O)OC)[nH]c54)c3)cc2)[nH]1 [Compound 45] | 0.85 nM | > 1000 nM | 563 nM | – | – | –
22 | CCN(CC)[C@@H](C(=O)N1CCC[C@H]1c1ncc(-c2ccc(-c3ccc4c(ccc5nc([C@@H]6C[Si](C)(C)CN6C(=O)[C@@H](NC(=O)OC)C(C)C)[nH]c54)c3)cc2)[nH]1)c1ccccc1 [Compound 88] | 0.26 nM | 500 nM | 10.9 nM | – | – | –
23 | COC(=O)N[C@H](C(=O)N1C[Si](C)(C)C[C@H]1c1nc2ccc3cc(-c4ccc(-c5[nH]c([C@@H]6C[C@H]7C[C@H]7N6C(=O)[C@@H](NC(=O)OC)C(C)C)nc5Cl)cc4)ccc3c2[nH]1)C(C)C [Compound 102] | 0.048 nM | 140 nM | – | – | – | –
24 | CC(C)(C)OC(=O)N1C[Si](C)(C)C[C@H]1c1nc2ccc3cc(-c4ccc(-c5cnc([C@@H]6C[C@H]7C[C@H]7N6C(=O)OC(C)(C)C)[nH]5)cc4)ccc3c2[nH]1 [Compound 104] | – | – | > 1000 nM | > 1000 nM | > 1000 nM | –
25 | CC(C)(C)OC(=O)N1C[Si](C)(C)C[C@H]1c1nc2ccc3cc(-c4ccc(-c5nc(Cl)c([C@@H]6C[C@H]7C[C@H]7N6C(=O)OC(C)(C)C)[nH]5)cc4)ccc3c2[nH]1 [Compound 109] | > 1 nM | > 100 nM | – | – | – | –
